As usually defined, the AC50 is the midpoint of the concentration-response curve, whichever way the signal moves.

SMILES strings stand for the structures. The source made the active and inactive calls.

Here are results for six compounds from ChEMBL document CHEMBL1201862, “PubChem BioAssay data set” (2004).

The target in test [1] is Voltage-gated inwardly rectifying potassium channel KCNH2 (Homo sapiens, UniProt Q12809). The note with it: Potency.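 Further: confirmatory quantitative high-throughput screen measuring inhibition of hERG channel activity.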
Chain of Voltage-gated inwardly rectifying potassium channel KCNH2 (Q12809 whole entry): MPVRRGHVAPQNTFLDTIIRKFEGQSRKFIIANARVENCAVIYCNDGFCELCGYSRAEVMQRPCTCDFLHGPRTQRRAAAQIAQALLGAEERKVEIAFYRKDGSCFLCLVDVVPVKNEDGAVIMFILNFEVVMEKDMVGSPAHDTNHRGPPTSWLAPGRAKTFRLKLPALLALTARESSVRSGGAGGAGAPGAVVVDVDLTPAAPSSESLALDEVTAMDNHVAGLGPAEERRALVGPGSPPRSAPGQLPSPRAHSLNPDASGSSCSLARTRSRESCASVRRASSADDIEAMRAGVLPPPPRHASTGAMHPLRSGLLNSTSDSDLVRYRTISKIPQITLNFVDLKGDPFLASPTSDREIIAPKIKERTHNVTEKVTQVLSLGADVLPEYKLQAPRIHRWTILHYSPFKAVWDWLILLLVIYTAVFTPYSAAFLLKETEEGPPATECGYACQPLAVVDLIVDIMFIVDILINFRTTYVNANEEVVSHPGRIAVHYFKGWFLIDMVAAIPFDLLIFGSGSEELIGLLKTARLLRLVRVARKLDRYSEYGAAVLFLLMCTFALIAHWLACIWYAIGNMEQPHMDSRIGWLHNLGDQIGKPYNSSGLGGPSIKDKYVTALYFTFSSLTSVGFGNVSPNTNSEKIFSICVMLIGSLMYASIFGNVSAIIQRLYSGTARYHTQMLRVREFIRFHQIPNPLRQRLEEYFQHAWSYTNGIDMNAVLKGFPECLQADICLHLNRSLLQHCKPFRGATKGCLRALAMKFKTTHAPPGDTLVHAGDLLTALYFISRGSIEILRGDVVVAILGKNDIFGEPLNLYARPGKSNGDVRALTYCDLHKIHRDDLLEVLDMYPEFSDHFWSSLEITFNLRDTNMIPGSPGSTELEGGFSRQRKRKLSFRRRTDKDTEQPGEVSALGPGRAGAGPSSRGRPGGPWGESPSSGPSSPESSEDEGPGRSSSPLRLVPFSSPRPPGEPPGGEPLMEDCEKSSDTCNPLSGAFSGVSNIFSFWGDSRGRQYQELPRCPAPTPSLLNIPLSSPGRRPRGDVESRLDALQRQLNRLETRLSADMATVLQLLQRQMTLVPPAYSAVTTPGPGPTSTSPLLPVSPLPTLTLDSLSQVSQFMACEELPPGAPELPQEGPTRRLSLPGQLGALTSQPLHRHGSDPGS
In test [2] the target is Induced myeloid leukemia cell differentiation protein Mcl-1 (Homo sapiens, UniProt Q07820). Briefly: blockers of MCL1 binding to BIM peptide – biochemical, fluorescence polarization, BIM-BH3 peptide, 1536-well, dose response (AID 2217).
Chain of Induced myeloid leukemia cell differentiation protein Mcl-1 (Q07820 whole entry): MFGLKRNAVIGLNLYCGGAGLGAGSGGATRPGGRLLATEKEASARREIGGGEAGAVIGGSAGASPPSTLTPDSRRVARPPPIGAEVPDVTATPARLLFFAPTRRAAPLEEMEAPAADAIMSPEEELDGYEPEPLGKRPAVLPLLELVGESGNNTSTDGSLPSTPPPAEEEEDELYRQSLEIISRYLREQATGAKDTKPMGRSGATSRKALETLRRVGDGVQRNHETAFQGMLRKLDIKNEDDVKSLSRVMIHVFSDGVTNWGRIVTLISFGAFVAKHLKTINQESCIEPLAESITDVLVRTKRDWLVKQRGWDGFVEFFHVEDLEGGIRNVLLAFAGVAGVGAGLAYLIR
The next test addresses Bcl-2-like protein 1 (Homo sapiens, UniProt Q07817). The test is described as follows: blockers of BCLXL peptide binding – biochemical, fluorescence polarization, 1536-well, selectivity assay for MCL1 inhibitor project, dose response (AID 2218). (In general: Polarisation of emitted light reports the rotation of a fluorescent probe.)
Test [3] has as its target Beta-adrenergic receptor kinase 1 (Homo sapiens, UniProt P25098). The test is described as follows: blockers of aptamer binding to GRK2 – biochemical, flow cytometry beads, FAM-aptamer, powder set 1, dose response (AID 588720).
Test [4] concerns the target T1, Carboxy-terminal domain RNA polymerase II polypeptide A small phosphatase 1 (Homo sapiens, UniProt Q9GZU7).
T1 sequence (Q9GZU7 whole entry): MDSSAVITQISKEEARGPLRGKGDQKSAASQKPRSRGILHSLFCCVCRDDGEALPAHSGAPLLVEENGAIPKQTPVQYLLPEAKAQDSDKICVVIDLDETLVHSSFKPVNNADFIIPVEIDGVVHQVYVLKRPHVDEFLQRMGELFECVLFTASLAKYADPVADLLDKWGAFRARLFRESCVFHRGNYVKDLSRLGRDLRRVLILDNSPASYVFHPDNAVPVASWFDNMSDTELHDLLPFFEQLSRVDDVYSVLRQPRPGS
Briefly: CTDSP1 inhibitors, concentration-response, biochemical, absorbance readout, ultra-high-throughput screen actives (AID 540297). Type of test: functional.

In test [5] the target is T2, Apoptotic protease-activating factor 1 (Homo sapiens, UniProt O14727).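 Further: caspase-3 cleavage of fluorogenic Rh110 DEVD substrate downstream of apoptosome activation.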
T2 sequence (O14727 whole entry): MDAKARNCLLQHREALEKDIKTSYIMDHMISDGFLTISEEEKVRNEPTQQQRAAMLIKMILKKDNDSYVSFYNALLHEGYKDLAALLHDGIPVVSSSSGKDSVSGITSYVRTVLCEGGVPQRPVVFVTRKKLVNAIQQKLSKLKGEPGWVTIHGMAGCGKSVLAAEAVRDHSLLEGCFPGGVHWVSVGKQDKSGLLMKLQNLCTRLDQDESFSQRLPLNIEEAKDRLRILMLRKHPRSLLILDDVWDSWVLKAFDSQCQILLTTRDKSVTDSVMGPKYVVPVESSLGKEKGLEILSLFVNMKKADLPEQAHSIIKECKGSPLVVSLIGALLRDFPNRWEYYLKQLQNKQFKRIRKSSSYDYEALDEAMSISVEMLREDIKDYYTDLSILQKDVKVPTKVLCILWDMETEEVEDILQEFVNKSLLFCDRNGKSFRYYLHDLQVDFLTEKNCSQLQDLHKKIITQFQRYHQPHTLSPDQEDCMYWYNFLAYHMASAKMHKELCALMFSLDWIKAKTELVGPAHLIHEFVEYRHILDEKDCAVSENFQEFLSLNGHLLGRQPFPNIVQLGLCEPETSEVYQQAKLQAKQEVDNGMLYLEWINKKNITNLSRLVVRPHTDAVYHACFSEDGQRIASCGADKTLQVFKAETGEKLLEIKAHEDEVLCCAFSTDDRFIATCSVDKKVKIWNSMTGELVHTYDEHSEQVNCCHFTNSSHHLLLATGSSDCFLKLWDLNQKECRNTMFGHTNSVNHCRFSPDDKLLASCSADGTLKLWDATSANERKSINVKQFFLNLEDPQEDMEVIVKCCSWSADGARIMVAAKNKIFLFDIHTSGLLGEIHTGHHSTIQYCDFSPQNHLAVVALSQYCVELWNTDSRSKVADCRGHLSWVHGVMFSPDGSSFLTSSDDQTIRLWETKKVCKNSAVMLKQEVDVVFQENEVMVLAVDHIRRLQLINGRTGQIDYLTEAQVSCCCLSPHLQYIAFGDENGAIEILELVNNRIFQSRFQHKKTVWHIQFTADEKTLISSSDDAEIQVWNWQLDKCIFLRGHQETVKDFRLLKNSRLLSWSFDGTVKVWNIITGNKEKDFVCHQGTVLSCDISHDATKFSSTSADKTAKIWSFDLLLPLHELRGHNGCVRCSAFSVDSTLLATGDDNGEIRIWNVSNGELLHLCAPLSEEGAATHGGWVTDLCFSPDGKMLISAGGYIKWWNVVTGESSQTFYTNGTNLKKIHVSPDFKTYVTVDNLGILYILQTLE
Briefly: SAR analysis of small molecule Activators of Apaf-1 in a Fluorescent assay. Type of test: functional. The settings on record: read-out: EC50_Mean.

The target of test [6] is 26S proteasome non-ATPase regulatory subunit 14 (Homo sapiens, UniProt O00487). The test is described as follows: inhibition of proteasome subunit RPN11 – biochemical, fluorescence polarization, uHTS hits, confirmation (AID 602368). Type of test: functional.
Chain of 26S proteasome non-ATPase regulatory subunit 14 (O00487 whole entry): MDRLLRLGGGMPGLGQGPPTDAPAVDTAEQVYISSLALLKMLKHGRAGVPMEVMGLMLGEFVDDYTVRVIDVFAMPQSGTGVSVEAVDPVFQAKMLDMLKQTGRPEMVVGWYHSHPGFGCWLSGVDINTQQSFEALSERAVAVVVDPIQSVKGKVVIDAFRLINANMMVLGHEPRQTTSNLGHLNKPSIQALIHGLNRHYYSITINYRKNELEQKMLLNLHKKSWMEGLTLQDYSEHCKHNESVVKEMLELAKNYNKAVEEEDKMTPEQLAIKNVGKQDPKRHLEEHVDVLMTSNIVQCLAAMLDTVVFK
The target in test [7] is 72 kDa type IV collagenase (Homo sapiens, UniProt P08253). Briefly: Dose Response validation of uHTS RPN11 inhibitor hits using a MMP-2 Fluorescence assay. Type of test: functional.
Chain of 72 kDa type IV collagenase (P08253 whole entry): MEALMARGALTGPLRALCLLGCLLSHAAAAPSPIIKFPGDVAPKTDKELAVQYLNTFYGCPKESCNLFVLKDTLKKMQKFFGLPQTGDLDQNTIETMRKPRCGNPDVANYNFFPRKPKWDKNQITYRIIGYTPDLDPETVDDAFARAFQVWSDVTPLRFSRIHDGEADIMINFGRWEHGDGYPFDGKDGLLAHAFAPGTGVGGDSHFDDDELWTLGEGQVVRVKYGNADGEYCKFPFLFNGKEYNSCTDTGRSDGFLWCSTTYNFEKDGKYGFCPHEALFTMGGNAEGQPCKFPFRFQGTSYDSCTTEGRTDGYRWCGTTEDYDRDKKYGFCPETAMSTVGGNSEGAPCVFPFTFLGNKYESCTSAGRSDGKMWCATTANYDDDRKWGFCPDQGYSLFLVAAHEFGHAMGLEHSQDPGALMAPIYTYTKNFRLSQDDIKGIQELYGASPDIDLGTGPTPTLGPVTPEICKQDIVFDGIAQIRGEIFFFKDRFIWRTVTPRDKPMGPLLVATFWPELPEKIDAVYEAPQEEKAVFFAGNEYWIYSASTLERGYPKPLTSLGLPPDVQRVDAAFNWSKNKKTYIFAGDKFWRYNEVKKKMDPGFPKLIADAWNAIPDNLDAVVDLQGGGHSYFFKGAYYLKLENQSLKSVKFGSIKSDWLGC
The target of a further test is Prothrombin (Bos taurus, UniProt P00735). Briefly: thrombin protease inhibitors – biochemical, fluorescence polarization, uHTS hits, dose response (AID 602369). The format is functional.
In test [8] the target is T3, Small ubiquitin-related modifier 1 (Homo sapiens, UniProt P63165). Briefly: SUMO1 protein interaction blockers, potency – biochemical, fluorescence polarization, uHTS hits, dose response (AID 624382). Type of test: functional. The settings on record: read-out: IC50_Mean.
T3 sequence (P63165 whole entry): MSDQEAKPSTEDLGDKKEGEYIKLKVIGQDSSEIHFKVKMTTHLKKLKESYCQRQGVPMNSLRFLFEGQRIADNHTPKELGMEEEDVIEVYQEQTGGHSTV
In test [9] the target is T3, Small ubiquitin-related modifier 1. The test is described as follows: SUMO1 protein-protein binding blockers, potency – biochemical, FRET, dose response (AID 624383). The format is functional. The settings on record: read-out: IC50_Mean.
Test [10] in a line: Fluorescence polarization-based biochemical high throughput dose response assay for activators of the Protein Kinase A-R1A (PKA-R1A) complex. [Related pubchem assays (depositor defined):AID504704, AID504707, AID504799, AID504800].
The nature of test [11]: Fluorescence polarization-based biochemical high throughput dose response assay for activators of the Protein Kinase A-R2B (PKA-R2B) complex. [Related pubchem assays (depositor defined):AID504700, AID504704, AID504796, AID504797].
Test [12] has as its system Streptococcus sp. 'group A'. The test is described as follows: Streptococcus pyogenes SK(-)GAS viability under kanamycin – luminescence, BacTiterGlo, confirmation, counter-screen for streptokinase expression inhibitor project, dose response (AID 1900). The format is functional, organism-based.
A further test deals with T4, Streptokinase A (Streptococcus pyogenes serotype M1, UniProt P10520).
T4 sequence (P10520 whole entry): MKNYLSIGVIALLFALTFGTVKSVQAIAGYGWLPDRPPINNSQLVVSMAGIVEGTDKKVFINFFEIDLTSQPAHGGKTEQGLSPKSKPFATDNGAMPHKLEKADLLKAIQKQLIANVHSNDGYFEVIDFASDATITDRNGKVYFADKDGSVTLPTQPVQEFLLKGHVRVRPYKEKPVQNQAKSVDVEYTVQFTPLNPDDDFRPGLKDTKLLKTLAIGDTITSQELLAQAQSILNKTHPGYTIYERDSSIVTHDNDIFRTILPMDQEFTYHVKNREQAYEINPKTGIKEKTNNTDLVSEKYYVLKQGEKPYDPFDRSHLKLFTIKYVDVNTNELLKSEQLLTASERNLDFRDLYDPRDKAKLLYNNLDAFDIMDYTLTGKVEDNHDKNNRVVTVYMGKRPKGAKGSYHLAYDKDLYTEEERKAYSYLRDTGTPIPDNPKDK
Briefly: viability-normalized secreted streptokinase activity reduction – plasminogen activation absorbance, OD405, dose response (AID 1914).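 Further: secreted streptokinase activity via plasminogen activation per viability signal from cell pellet.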 The format is functional, Streptococcus pyogenes M1 GAS.

A further test concerns Streptococcus. Briefly: GAS UMAA2166 growth inhibition – luminescence, BacTiterGlo, counter-screen for streptokinase expression inhibitor project, dose response (AID 1915).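 Further: potency for reduction of bacterial viability or growth.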 Type of test: functional, organism-based. (Counterscreens check selectivity or assay interference.)
The next test has as its target Beta-arrestin-1 (Homo sapiens, UniProt P49407). The test is described as follows: beta-arrestin/AP2 interaction blockers, potency – biochemical, cherry pick 1, beta2-adaptin appendage, flow cytometry, dose response (AID 588783). Type of test: functional. For orientation: Flow cytometry measures light scatter and fluorescence of single cells or particles in a stream.

Test [13] deals with Glycogen synthase kinase-3 alpha (Homo sapiens, UniProt P49840). The test is described as follows: Inhibition of Human GSK-3 alpha Activity Measured in Biochemical System Using Microfluidics - 2063-06_Inhibitor_Dose_DryPowder_Activity. [Related pubchem assays (depositor defined):AID2709].
Chain of Glycogen synthase kinase-3 alpha (P49840 whole entry): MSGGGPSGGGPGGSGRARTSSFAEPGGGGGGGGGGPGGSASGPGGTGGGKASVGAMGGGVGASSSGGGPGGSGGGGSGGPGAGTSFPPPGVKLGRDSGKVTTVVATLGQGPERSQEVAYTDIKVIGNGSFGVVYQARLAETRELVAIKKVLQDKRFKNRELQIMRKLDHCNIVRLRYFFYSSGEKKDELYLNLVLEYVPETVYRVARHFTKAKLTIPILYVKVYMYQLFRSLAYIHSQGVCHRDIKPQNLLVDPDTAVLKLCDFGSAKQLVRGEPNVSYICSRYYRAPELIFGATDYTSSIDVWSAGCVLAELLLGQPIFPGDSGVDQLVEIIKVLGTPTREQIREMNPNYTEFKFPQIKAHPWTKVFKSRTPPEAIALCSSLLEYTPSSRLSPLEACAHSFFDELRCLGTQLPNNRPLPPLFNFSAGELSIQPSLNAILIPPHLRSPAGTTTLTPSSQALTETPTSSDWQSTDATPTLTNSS
In test [14] the target is Glycogen synthase kinase-3 beta (Homo sapiens, UniProt P49841). Briefly: Inhibition of Human GSK-3 beta Activity Measured in Biochemical System Using Microfluidics - 2063-05_Inhibitor_Dose_DryPowder_Activity. [Related pubchem assays (depositor defined):AID2709].
A short description of test [15]: luciferase reporter signal suppression in cells – H4 neuroglioma cells, luminescence, dose response (AID 1990). The format is functional, cell-based.
Test [16] in a line: luciferase reporter signal reduction – luminescence, H4-C neuroglioblastoma cells, dose response (AID 2458).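 Further: H4 neuroglioblastoma cells stably carrying a luciferase reporter gene fusion.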 The format is functional, cell-based.
A further test can be described thus: cells. Type of test: functional, cell-based.
A short description of test [17]: Luminescence Cell-Based Dose Response HTS to Identify Inhibitors of 5'UTR Stem-Loop Driven Prion Protein mRNA Translation in H4 Neuroglioblastoma Cells. [Related pubchem assays: 1827 (Project Summary), 1813 (Primary HTS)]. The format is functional.
The target in test [18] is T5, Heat shock factor protein 1 (Mus musculus, UniProt P38532).
T5 sequence (P38532 whole entry): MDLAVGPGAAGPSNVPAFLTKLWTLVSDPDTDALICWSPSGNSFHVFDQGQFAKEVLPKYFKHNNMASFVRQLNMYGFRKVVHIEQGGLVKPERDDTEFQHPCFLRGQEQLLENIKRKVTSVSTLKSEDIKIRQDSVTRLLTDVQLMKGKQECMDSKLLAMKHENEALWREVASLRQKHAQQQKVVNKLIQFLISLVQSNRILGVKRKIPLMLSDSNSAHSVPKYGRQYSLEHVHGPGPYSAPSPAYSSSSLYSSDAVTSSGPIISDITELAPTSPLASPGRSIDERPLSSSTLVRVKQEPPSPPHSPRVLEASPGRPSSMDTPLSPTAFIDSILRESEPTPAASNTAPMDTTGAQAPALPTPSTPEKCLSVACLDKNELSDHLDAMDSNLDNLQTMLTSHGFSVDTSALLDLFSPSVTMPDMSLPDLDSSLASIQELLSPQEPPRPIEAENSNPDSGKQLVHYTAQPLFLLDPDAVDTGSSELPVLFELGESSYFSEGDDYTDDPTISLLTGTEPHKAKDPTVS
The test is described as follows: decrease of HSF1-responsive luciferase luminescence – cell-based, NIH3T3, dose retest, confirmation (AID 2382).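 Further: NIH3T3 fibroblasts with HSF1-driven luciferase reporter stressed by proteasome inhibitor MG132; luminescence from HSF1-driven luciferase expression after 8 hours of MG132 stress.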 The format is functional.

Test [19] in a line: alpha-synuclein stem-loop luciferase translation blockers – H4 neuroglioma cells, luminescence, confirmation (AID 1988). The format is functional, cell-based.
A short description of test [20]: alpha-synuclein stem-loop translation blockers – luminescence, H4 neuroglioblastoma cells, dose confirmation, confirmation (AID 2454).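 Further: H4 neuroglioblastoma cells carrying an alpha-synuclein 5'UTR luciferase reporter; potency for inhibition of the luciferase signal.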 The format is functional, cell-based.
For test [21], the target named is Luciferin 4-monooxygenase (Photuris pensylvanica, UniProt Q27757). Briefly: inhibition of Cell Titer Glo luciferase signal – biochemical, luminescence, cherry-picks, counter-screen for HSF-1 reporter inhibitor project, dose response (AID 588847).
Chain of Luciferin 4-monooxygenase (Q27757 whole entry): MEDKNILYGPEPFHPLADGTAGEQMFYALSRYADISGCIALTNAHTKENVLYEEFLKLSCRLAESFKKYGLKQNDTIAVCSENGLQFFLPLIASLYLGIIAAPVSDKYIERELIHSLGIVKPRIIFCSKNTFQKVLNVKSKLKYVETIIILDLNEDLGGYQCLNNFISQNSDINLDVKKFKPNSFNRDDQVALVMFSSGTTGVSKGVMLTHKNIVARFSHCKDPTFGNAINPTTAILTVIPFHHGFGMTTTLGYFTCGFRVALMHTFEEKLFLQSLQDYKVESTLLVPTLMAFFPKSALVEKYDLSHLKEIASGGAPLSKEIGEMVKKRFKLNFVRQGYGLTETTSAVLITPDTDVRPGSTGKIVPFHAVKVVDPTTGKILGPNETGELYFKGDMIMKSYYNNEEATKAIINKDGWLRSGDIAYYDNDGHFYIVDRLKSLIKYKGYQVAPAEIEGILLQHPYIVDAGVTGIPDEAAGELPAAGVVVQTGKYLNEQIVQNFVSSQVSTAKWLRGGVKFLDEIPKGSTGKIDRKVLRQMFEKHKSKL
Test [22] is described as follows: reduction of Shn3 3'UTR-driven luciferase in osteoblasts – cell-based, Clone20 osteoblasts, firefly luciferase, cherry-picked, dose response (AID 624132).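 Further: firefly luciferase luminescence from reporter carrying the Shn3 3'UTR in osteoblasts.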 Type of test: functional.
Test [23] is described as follows: loss of viability in HepG2 cells – cell-based, CellTiter-Glo, cherry-picked, cytotoxicity control for Shn3 inhibitor project, dose response (AID 624134). Type of test: functional.
Test [24] in a line: non-specific 3'UTR reporter inhibition in Clone20-Shn3RL – cell-based, Renilla luciferase, cherry-picked, counter-screen for Shn3 inhibitor project, dose response (AID 624133). The format is functional.

Chain of Beta-adrenergic receptor kinase 1 (P25098 whole entry, the tested form may be a part): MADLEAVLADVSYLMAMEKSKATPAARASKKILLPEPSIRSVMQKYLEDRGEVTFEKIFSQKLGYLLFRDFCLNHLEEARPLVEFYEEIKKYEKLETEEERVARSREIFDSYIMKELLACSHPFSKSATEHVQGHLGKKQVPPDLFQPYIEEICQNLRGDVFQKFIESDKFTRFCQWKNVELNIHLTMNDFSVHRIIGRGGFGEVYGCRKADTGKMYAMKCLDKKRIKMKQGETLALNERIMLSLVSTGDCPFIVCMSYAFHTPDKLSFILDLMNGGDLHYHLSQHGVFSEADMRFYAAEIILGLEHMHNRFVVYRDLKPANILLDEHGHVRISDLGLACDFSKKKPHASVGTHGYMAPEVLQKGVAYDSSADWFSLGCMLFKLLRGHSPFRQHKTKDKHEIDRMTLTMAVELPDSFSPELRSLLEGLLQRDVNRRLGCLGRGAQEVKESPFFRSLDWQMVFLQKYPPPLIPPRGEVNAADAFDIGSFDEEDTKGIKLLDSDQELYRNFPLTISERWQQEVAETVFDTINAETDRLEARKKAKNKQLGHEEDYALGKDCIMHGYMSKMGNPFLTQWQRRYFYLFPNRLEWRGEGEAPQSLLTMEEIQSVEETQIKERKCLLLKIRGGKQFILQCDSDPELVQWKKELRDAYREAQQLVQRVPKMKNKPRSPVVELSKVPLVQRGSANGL
Chain of Bcl-2-like protein 1 (Q07817 whole entry): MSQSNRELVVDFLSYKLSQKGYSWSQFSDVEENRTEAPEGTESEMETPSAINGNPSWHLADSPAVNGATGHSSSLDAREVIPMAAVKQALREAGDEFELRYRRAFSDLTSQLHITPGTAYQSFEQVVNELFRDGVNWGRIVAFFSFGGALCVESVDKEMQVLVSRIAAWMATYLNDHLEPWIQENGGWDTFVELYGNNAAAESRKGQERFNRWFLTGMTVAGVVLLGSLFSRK
Chain of Beta-arrestin-1 (P49407 whole entry): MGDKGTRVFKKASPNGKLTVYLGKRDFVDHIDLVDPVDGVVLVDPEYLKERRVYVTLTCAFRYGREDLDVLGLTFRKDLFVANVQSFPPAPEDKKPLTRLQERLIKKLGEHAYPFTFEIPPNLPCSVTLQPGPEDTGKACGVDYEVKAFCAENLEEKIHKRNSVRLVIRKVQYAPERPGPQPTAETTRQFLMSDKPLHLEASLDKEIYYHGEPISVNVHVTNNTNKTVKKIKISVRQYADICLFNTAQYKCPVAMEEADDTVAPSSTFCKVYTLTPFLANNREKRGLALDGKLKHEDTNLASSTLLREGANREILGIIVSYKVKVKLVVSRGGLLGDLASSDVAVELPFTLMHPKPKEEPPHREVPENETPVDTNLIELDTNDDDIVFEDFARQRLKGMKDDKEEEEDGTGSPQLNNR

For the compound `NCCNS(=O)(=O)c1cccc2cnccc12`, in [1], the AC50 is 12.6 µM (inconclusive).
Take `COc1ccc(Cl)cc1NC(=O)CCS(=O)(=O)c1ccc(Br)cc1`: the IC50 is 11.4 µM (not active) in test [2]; 32.2 µM (not active) at Bcl-2-like protein 1; 4.16 µM (active) in [4]; 10.9 µM (active) in test [6]; > 100 µM (inactive) in test [7]; > 100 µM (inactive) on Prothrombin. Further, the values for the IC50 in test [8] and in test [9] were > 66.6 µM (inactive) and 5.02 µM (active), respectively. Also, the values for the EC50 in [3] and in test [5] were 0.779 µM (active) and 17.4 µM (active), respectively.
As for `Nc1ncnc2c1nc(Sc1ccc(Cl)cc1)n2[C@@H]1O[C@@H]2COP(=O)(O)O[C@H]2[C@H]1O`, the results for the EC50 in [10] and in test [11] were 0.0327 µM (active) and 0.0505 µM (active), respectively.
On to `Brc1ccccc1C1Nc2cccc3cccc(c23)N1`, for which the values for the EC50 (in test [12]; on Streptokinase A; in the test on Streptococcus) were 9.74 µM (active), > 150 µM (not active) and 14.2 µM (active), respectively. In addition, the IC50 on Beta-arrestin-1 was 2.94 µM (inactive).
`Nc1nc(NCCCN2CCOCC2)nc(Nc2ccc(F)cc2)c1[N+](=O)[O-]`: the concentration at half-maximal activity (AC50) in test [13] is 1.25 µM (active); in test [14] it was 0.406 µM (active).
Regarding `O=c1c2ccccc2sc2ccc(C#CC3(O)CCCCC3)cc12`, the EC50 in test [15] was < 0.1 µM (active); in [16], 0.14 µM (active); in “cells”, 0.083 µM (active); in [17] it was < 0.1 µM (active); in test [18] it was < 0.16 µM (active); in [19], < 0.1 µM (active). Besides, in test [20], the EC50 is 0.118 µM (active). The AC50 was 0.555 µM (active) in [21], < 0.26 µM (active) in test [22], > 70 µM (inactive) in [23] and 29.8 µM (active) in test [24].
